This note sets out measurements from patent publication US20120010075A1 (priority 2009, published 2012).

One data set concerns Phytophthora infestans. The data set is classed as in vivo, Phytophthora infestans on tomato. The note with it: hydrazone 50 ppm with 50 μM CuCl2.2H2O, applied 24 h before inoculation; assessed 7 days after inoculation; tomato late blight.
Data set [1] concerns Leptosphaeria nodorum (LEPTNO). Description: In vitro fungitoxicity of hydrazones with and without copper towards Leptosphaeria nodorum (Example 26). It is filed as cell-based. To be noted: test compound Concn. 0.05 μg/mL, 72 h at 25° C.; for inhibition of growth at 0.05 µg/mL: Parastagonospora nodorum, 72 h, copper-minus medium, read-out: LEPTNO % Inhn. Minus Copper Observed; for LEPTNO % Inhn. Plus Copper Observed: copper-plus medium (CuCl2 10 μM).

In turn, `COc1cc(O)c(/C(C)=N/NC(=O)c2cccc(Cl)c2)c(OC)c1` [Example 567] yielded a melting point of 206 to 215 °C. Further, in the data set on Phytophthora infestans, the “TLB % Control” value was determined as 14.0%. In data set [1], the inhibition of growth at 0.05 µg/mL was found to be 2.5% and the “LEPTNO % Inhn. Plus Copper Observed” value is recorded as 42.3%.
For `COc1cc(O)c(/C(C)=N/NC(=O)c2ccc(Cl)cc2)c(OC)c1` [Example 568], in that order: 136 to 140 °C, 61.0%, 8% and 94.3%.
The corresponding values for `COc1ccc(C(=O)N/N=C(\C)c2c(O)cc(OC)cc2OC)cc1` [Example 569] are 143 to 146 °C, 70.0%, 6.1% and 15.8%.
`COc1cc(O)c(/C(C)=N/NC(=O)c2ccc(Br)cc2)c(OC)c1` [Example 570]: the melting point is 134 to 159 °C. In addition, the “TLB % Control” value with Phytophthora infestans worked out at 39.0%. In data set [1], the inhibition of growth at 0.05 µg/mL worked out at 3.2% and the “LEPTNO % Inhn. Plus Copper Observed” value is listed as 97.2%.
`COc1cc(O)c(/C(C)=N/NC(=O)c2ccc(C(F)(F)F)cc2)c(OC)c1` [Example 571]: the melting point is 131 to 133 °C. Moreover, in the data set on Phytophthora infestans, the “TLB % Control” value came to 31.0%. In data set [1], the inhibition of growth at 0.05 µg/mL was 0% and the “LEPTNO % Inhn. Plus Copper Observed” value worked out at 84.7%.
Regarding `C/C(=N\NC(=O)c1ccccc1)c1cc(F)cc(F)c1O` [Example 572], the melting point fell in the range of 222 to 225 °C. Further, the “TLB % Control” value in the data set on Phytophthora infestans amounted to 94.0%. In data set [1], the inhibition of growth at 0.05 µg/mL worked out at 2.5% and the “LEPTNO % Inhn. Plus Copper Observed” value was found to be 97.4%.
For `C/C(=N\NC(=O)c1ccccc1C)c1cc(F)cc(F)c1O` [Example 573], in that order: 186 to 188 °C, 93.0%, 2.4% and 98.4%.
Take `C/C(=N\NC(=O)c1cccc(C)c1)c1cc(F)cc(F)c1O` [Example 574]: the melting point was 215 to 216 °C. The “TLB % Control” value with Phytophthora infestans came out at 93.0%. For the same compound, in data set [1], the inhibition of growth at 0.05 µg/mL was 2.8% and the “LEPTNO % Inhn. Plus Copper Observed” value turned out to be 98.3%.
The corresponding values for `C/C(=N\NC(=O)c1ccc(C)cc1)c1cc(F)cc(F)c1O` [Example 575] are 220 to 222 °C, 100.0%, 0% and 98.1%.
For `C/C(=N\NC(=O)c1ccccc1Cl)c1cc(F)cc(F)c1O` [Example 576], in that order: 205 to 209 °C, 90.0%, 0.7% and 97.9%.
With `C/C(=N\NC(=O)c1cccc(Cl)c1)c1cc(F)cc(F)c1O` [Example 577], the melting point is 279 to 282 °C. Also, in the data set on Phytophthora infestans, the “TLB % Control” value is reported as 100.0%. Also, in data set [1], the inhibition of growth at 0.05 µg/mL came out at 1.9% and the “LEPTNO % Inhn. Plus Copper Observed” value came out at 97.9%.
For `COc1ccc(C(=O)N/N=C(\C)c2cc(F)cc(F)c2O)cc1` [Example 579], in that order: 243 to 247 °C, 97.0%, 0% and 97.6%.
In the case of `C/C(=N\NC(=O)c1ccc(Br)cc1)c1cc(F)cc(F)c1O` [Example 580], the melting point lay within 268 to 270 °C. Besides, in the data set on Phytophthora infestans, the “TLB % Control” value was found to be 97.0%. In data set [1], the inhibition of growth at 0.05 µg/mL came to 3.1% and the “LEPTNO % Inhn. Plus Copper Observed” value is reported as 98.1%.
On to `C/C(=N\NC(=O)c1ccc(C(F)(F)F)cc1)c1cc(F)cc(F)c1O` [Example 581], for which the melting point lay within 287 to 291 °C. For the same compound, the “TLB % Control” value in the data set with Phytophthora infestans is 93.0%. In addition, in data set [1], the inhibition of growth at 0.05 µg/mL was determined as 13.6% and the “LEPTNO % Inhn. Plus Copper Observed” value came out at 98.2%.
For `C/C(=N\NC(=O)c1ccccc1Br)c1cc(F)cc(F)c1O` [Example 582], in that order: 190 to 195 °C, 94.0%, 12.2% and 97.8%.
For `C/C(=N\NC(=O)c1ccccc1O)c1cc(F)cc(F)c1O` [Example 583], in that order: 308 to 323 °C, 100.0%, 13.2% and 98.0%.
The corresponding values for `COc1cc(O)c(/C(C)=N/NC(=O)c2ccccc2C)c(OC)c1` [Example 584] are 269 to 274 °C, 7.6%, 3% and 11.8%.
`COc1cc(O)c(/C(C)=N/NC(=O)c2cccc(C)c2)c(OC)c1` [Example 585]: the melting point lay within 207 to 209 °C. Also, the “TLB % Control” value in the data set with Phytophthora infestans is 62.0%. Besides, in data set [1], the inhibition of growth at 0.05 µg/mL is 6.3% and the “LEPTNO % Inhn. Plus Copper Observed” value is given as 86.3%.
For `COc1cc(O)c(/C(C)=N/NC(=O)c2ccccc2O)c(OC)c1` [Example 586], in that order: 182 to 199 °C, 31.0%, 0% and 87.3%.
With `O=C(N/N=C(/c1cc(Cl)cc(Cl)c1O)C(F)(F)F)c1ccccc1` [Example 587], the melting point lay within 195 to 196 °C. In addition, in the data set on Phytophthora infestans, the “TLB % Control” value came to 2.4%. In addition, in data set [1], the inhibition of growth at 0.05 µg/mL was determined as 6.2% and the “LEPTNO % Inhn. Plus Copper Observed” value is listed as 96.6%.
`O=C(N/N=C(/c1cc(Cl)cc(Cl)c1O)C1CC1)c1ccccc1` [Example 589] showed a melting point of 218 to 219 °C. In addition, the “TLB % Control” value in the data set on Phytophthora infestans is on record as 61.0%. Moreover, in data set [1], the inhibition of growth at 0.05 µg/mL came out at 8.7% and the “LEPTNO % Inhn. Plus Copper Observed” value amounted to 97.9%.
The compound `CC/C(=N\NC(=O)c1ccccc1)c1cc(Cl)cc(Cl)c1O` [Example 590] registered a melting point of 214 to 215 °C. Besides, the “TLB % Control” value in the data set with Phytophthora infestans is given as 88.0%. In addition, in data set [1], the inhibition of growth at 0.05 µg/mL came to 10% and the “LEPTNO % Inhn. Plus Copper Observed” value worked out at 98.6%.
For `O=C(N/N=C(/c1ccccc1O)C(F)(F)F)c1ccccc1` [Example 591], in that order: 208 to 210 °C, 11.0%, 0% and 9.9%.
Compound `CC(C)(C)/C(=N\NC(=O)c1ccccc1)c1ccccc1O` [Example 592] yielded a melting point of 241 to 243 °C. Besides, in the data set with Phytophthora infestans, the “TLB % Control” value is recorded as 1.4%. Further, in data set [1], the inhibition of growth at 0.05 µg/mL stood at 0% and the “LEPTNO % Inhn. Plus Copper Observed” value turned out to be 25.4%.
